Assays:
[1] = target: T1, human full-length HIF-P4H-1 (Homo sapiens, UniProt Q96KS0); assay: Cell-free HIF-P4H-1 activity assay (^14CO2 release); assay type: biochemical
T1 construct: The human full-length HIF-P4H-1 and KDM6A enzymes were recombinantly produced using Sf21 insect cells; made in house; host or cells: Sf21 insect cells (baculovirus)
Text: The human full-length HIF-P4H-1 and KDM6A enzymes were recombinantly produced using Sf21 insect cells and the enzymes were purified with anti-FLAG M2 affinity gel as described previously[68],[69]. Briefly, the C terminus FLAG-tagged human HIF-P4H1-2 and KDM6A were generated using PCR and subcloned into pAcG3X and pVL1393 baculovirus expression vectors, respectively. The recombinant baculoviruses were generated by transducing the bacmid DNA into Spodoptera frugiperda Sf9 cells using BaculoGold DNA (HIF-P4H1-2, BD Biosciences) and BacMagic-3 DNA kit (for KDM6A, Novagen). Recombinant proteins were produced by infecting Sf21 insect cells with the corresponding amplified baculoviruses for 72 h at 27 °C. Cells were homogenized in a buffer containing 10 mM Tris, 150 mM NaCl, 100 mM glycine, 0.1% (v/v) Triton X-100, pH 7.8, and a protease inhibitor cocktail tablet without EDTA. The cell lysates were centrifuged at 21,000g for 30 min; the soluble fractions containing the FLAG-tagged proteins were affinity-purified using the anti-FLAG M2 affinity gel (Sigma-Aldrich). […] Protein concentration was measured with NanoDrop and proteins were analysed by SDS–PAGE followed by Coomassie brilliant blue staining. […] The IC50 value of the glutarate analogue was calculated from the inhibition saturation curves.

[2] = target: T2, PDHE2 lipoate in human CD8^+ T cells (Homo sapiens, UniProt P10515); assay: PDHE2 lipoate western blot; assay type: cell-based; details: 500 µM DEG, 24 h
T2 construct: We treated human CD8^+ T cells with DEG and observed reduced PDHE2 lipoate level; endogenous in cells; host or cells: primary human CD8+ T cells
Description: Lipoic acid western blotting was performed as above with the following alterations: blocking buffer and secondary antibody buffer (5% milk plus 1% fatty acid free bovine serum albumin (BSA) (catalogue no. BP9704100, Thermo Fisher Scientific) prepared in PBS plus 0.05% Tween-20); and primary antibody buffer (2% fatty acid free BSA prepared in PBS plus 0.05% Tween-20). Lipoic acid antibody was used at a concentration of 1:2,000 (catalogue no. 437695, Sigma-Aldrich). Data were analysed using the iBright Analysis Software v.4.0.1 or ImageJ.

PDHc = target: T3, PDHc (Homo sapiens, UniProt P10515); assay: PDHc activity assay on CD8^+ T cell lysates; assay type: cell-based; details: 500 µM DEG
T3 construct: we performed a direct enzymatic activity assay of the PDHc on CD8^+ T cell lysates; endogenous in cells; host or cells: human CD8+ T cells, lysate (activity kit MAK183, Sigma-Aldrich)
Description: PDHc activity was determined using a PDHc Activity Assay Kit (catalogue no. MAK183, Sigma-Aldrich). A total of 1 × 10^6 cells were used per reaction and the assay was performed according to the manufacturer’s instructions. Activity was normalized to total protein concentration. Data were acquired on a FLUOstar Omega (BMG Labtech).

CD8^+ T cells = assay: Acetyl-CoA measurement; assay type: cell-based, human; details: 500 µM DEG, 30 min or 7 days
Description: Acetyl-CoA levels were determined using an acetyl-CoA assay kit (catalogue no. MAK039, Sigma-Aldrich). After culture, 2 × 10^6 cells per condition were collected, washed twice with ice-cold PBS and resuspended in 500 µl of the assay buffer. Following deproteinization by adding 2 µl 1M perchloric acid, samples were sonicated and the assay was performed according to the manufacturer’s instructions. Data were acquired on the FLUOstar Omega.

| SMILES | IC50 [1] [mM] | PDHE2 lipoate level [2] | PDHc activity, acute exposure (PDHc; 30 min) | PDHc activity, chronic exposure (PDHc; seven day) | acetyl-CoA levels (CD8^+ T cells) |
| --- | --- | --- | --- | --- | --- |
| O=C(O)CCCC(=O)O [glutarate, glutaric acid] | 2 | – | – | – | – |
| CCOC(=O)CCCC(=O)OCC [DEG, Diethyl glutarate] | – | reduced | decreased PDHc activity | decreased PDHc activity | not lower |

Reference: article PMC10590756, “Glutarate regulates T cell metabolism and anti-tumour immunity” (Nature Metabolism, 2023)
